Assay results taken from patent US20110301110A1, “TRIM33 (TIF1gamma) AS A NEW DIAGNOSTIC MARKER OF CHRONIC MYELOMONOCYTIC LEUKEMIA (CMML)” (priority 2010, published 2011).

How the values were obtained:
[1] = tested on: TIF1γ expression in sorted PB monocytes (CD14+ cells); test: TIF1γ expression (RQ-PCR, immuno-blotting) in sorted PB monocytes (CD14+ cells) of a CMML patient before and after treatment with decitabine; format: in vivo, human; details: one CMML patient with very low Tif1γ level, after 5 cycles of decitabine; sorted PB monocytes (FIG. 7A)
Description: Protein extracts were prepared from purified human monocytes (CD14+ cells) for SDS-PAGE and immuno-blotting with anti-TIF1γ antibody. Equivalent loading of lanes was controlled by the use of an anti-HSC70 antibody.

control Lin- cells = control Lin- cells cultured for 10 days in the presence or absence of TGF-β or TGF-β inhibitor, formation of myeloid cells; format: cell-based, mouse; details: 10 days culture, compared to untreated cultures
Description: (§1) To answer this question, control and Tif1γ-deficient Lin^− cells were cultured for 10 days in the presence or absence of TGF-β. Cells were also treated with TGF-β inhibitor.

[2] = tested on: Tif1γ-deficient Lin- cells; test: Tif1γ-deficient Lin- cells cultured for 10 days in the presence or absence of TGF-β, myelopoiesis; format: cell-based, mouse; details: 10 days culture
Description: as §1

HCT116 = HCT116 human tumor cell line; cited from earlier work
NALM-6 = NALM-6 human tumor cell line; cited from earlier work

Molecule: Nc1ncn([C@H]2C[C@H](O)[C@@H](CO)O2)c(=O)n1 [decitabine, 4-amino-1-(2-deoxy-b-D-erythro-pentofuranosyl)-1,3,5-triazin-2(1 H)-one]
- TIF1γ expression, increase compared to the level measured before treatment [1]: 8 fold

Molecule: TGF-β
- formation of myeloid cells (control Lin- cells): limited formation of myeloid cells
- myelopoiesis [2]: did not inhibit myelopoiesis

Molecule: O=C(O)C(Cc1c[nH]c2ccccc12)N1C(=O)c2ccccc2C1=O (centres unmarked) [RG 108, N-phthalyl-1-tryptophan]
- proliferation (HCT116): inhibits
- proliferation (NALM-6): inhibits
